Assay [1] has as its target T1, FGF-R4 ECD (Homo sapiens, UniProt P22455).
T1 construct: DNA constructs for the extracellular domain (ECD) of human FGF-; HPC4 (C); made in house; host or cells: HEK 293-6E
T1 sequence (P22455 22-369 limits assumed): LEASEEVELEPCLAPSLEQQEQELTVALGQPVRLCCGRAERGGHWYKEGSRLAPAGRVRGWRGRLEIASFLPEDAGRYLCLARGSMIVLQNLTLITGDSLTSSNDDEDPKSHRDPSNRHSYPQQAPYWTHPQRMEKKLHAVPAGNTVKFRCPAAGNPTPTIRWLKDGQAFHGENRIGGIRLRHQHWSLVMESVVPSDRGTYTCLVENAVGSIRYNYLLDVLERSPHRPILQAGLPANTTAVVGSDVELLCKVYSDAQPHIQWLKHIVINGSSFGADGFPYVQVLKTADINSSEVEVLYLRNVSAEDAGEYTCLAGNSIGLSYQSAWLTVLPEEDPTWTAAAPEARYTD
Nature of the assay: multi-concentration BLI of purified peptides. The following applies: purified NNK library peptides. Type of assay: binding. Put shortly:
(§1)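 Biolayer interferometry with biotinylated FGF-R ECD on streptavidin biosensors in PBS pH 7.4, 0.05% Tween-20, 0.01% BSA. Multi-concentration: purified peptide dilution series fitted to a multi-point KD model.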

Assay [2] concerns the target T1, FGF-R4 ECD. Nature of the assay: single concentration BLI of crude peptides. Type of assay: binding. The following applies: crude NNK peptides, single concentration BLI (Table S3); read-out: KD (4). Put shortly: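 Streptavidin biosensors carrying biotinylated FGF receptor ECD were immersed in peptide (~1 μM for crude single-point runs, a concentration series for purified peptides) and then in peptide-free buffer. KD was obtained by fitting the BLI association and dissociation curves.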

Assay [3] has as its target T2, FGF-R3C ECD (Homo sapiens, UniProt P22607).
T2 sequence (P22607 23-375 limits assumed): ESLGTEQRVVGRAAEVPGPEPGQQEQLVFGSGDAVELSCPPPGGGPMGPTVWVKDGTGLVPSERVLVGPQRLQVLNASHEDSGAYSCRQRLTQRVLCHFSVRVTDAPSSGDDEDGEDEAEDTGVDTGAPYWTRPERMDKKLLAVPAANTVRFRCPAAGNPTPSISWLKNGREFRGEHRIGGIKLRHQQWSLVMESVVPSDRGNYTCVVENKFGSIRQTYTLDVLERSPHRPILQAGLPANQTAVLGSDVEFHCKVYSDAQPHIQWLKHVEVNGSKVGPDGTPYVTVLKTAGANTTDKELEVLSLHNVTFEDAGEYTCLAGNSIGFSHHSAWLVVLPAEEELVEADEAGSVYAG
Nature of the assay: biochemical. Format: binding. Set-up: DNA constructs for the extracellular domain (ECD) of human FGF-; HPC4 (C); made in house; host or cells: HEK 293-6E. A digest of the protocol: as §1

Assay [4] has as its target T3, FGF-R1C ECD (Homo sapiens, UniProt P11362).
T3 sequence (P11362 22-376 limits assumed): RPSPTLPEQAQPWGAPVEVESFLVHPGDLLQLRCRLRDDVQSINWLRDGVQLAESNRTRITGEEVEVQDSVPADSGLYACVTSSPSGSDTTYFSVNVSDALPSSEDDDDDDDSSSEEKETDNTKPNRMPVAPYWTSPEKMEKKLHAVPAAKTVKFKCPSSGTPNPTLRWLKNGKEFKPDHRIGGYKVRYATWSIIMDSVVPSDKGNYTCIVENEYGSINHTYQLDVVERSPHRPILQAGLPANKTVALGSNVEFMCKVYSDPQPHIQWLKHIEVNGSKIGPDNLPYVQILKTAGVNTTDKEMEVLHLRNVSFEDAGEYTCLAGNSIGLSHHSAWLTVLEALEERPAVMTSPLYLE
Description: biochemical. Format: binding. Set-up: DNA constructs for the extracellular domain (ECD) of human FGF-; HPC4 (C); made in house; host or cells: HEK 293-6E. Put shortly: as §1

Assay [5] has as its target T4, FGFR4/KLB (Fc-fused human FGF-R4 with beta-klotho) (Homo sapiens, UniProt P22455).
T4 sequence (P22455 22-369 limits assumed): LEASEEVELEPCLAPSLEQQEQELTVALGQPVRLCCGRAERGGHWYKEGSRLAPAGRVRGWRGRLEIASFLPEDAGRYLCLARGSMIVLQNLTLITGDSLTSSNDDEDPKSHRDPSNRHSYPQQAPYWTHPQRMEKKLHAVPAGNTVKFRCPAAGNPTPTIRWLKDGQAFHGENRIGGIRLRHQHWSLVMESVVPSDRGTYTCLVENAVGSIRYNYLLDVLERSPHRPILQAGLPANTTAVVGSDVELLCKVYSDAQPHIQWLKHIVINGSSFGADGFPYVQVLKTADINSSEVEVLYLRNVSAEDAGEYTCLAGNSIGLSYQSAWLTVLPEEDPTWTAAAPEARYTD
Description: AlphaScreen FGF21 competitive binding assay. On the technique in general: Bead proximity is the source of the signal in Alpha formats.

In assay [6] the target is T5, FGFR3c/BKL (Fc-fused human FGF-R3alpha(IIIc) with beta-klotho) (Homo sapiens, UniProt P22607).
T5 sequence (P22607 23-375 limits assumed): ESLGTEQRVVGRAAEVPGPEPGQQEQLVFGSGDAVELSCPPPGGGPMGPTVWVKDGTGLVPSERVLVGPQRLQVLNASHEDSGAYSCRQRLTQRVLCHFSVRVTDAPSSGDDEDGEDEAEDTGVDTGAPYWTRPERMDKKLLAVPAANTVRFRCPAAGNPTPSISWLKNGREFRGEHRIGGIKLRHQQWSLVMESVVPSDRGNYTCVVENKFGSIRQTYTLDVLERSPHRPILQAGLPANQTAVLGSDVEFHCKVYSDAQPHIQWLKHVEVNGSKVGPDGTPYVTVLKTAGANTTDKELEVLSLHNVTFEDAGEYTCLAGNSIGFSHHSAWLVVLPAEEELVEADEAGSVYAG
Nature of the assay: AlphaScreen FGF21 competitive binding assay.

Assay [7] has as its target T6, FGFR1c/KLB (Fc-fused human FGF-R1alpha(IIIc) with beta-klotho) (Homo sapiens, UniProt P11362).
T6 sequence (P11362 22-376 limits assumed): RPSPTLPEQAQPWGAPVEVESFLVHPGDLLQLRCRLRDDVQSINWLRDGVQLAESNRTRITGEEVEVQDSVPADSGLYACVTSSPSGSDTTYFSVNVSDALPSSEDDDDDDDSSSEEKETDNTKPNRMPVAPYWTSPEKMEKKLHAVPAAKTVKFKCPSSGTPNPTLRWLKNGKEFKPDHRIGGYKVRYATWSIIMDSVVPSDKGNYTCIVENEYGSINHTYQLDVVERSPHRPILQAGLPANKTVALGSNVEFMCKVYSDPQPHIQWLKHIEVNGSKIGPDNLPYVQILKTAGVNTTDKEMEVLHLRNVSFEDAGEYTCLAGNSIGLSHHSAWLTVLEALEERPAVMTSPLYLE
Nature of the assay: AlphaScreen FGF21 competitive binding assay.
Description: Alphascreen binding assay
The competitive binding assay was carried out according to the methods detailed in Hansen. et al using
AlphaScreen.3 All reagents and samples were prepared in assay buffer: 40mM Hepes, 140mM NaCl, 1mM
CaCl2, 0,05% Tween20, pH=7.5, 0.1% BSA. In brief, recombinant human beta-klotho (R&D Systems) was
preincubated for 60 min with the ectodomain, either Fc-fused human FGF-R1alpha(IIIc), FGF-R3alpha(IIIc)
or FGF-R4 (R&D Systems), and the mixture was added to the test peptides in OptiPlate™ (PerkinElmer).
Biotinylated FGF21 and heparin were further added to each well. AlphaScreen bead mix (1:1 mix of Protein
A acceptor beads/ streptavidin-coated donor beads, PerkinElmer) were added to each well incubated
overnight at RT in the dark, and measured on a plate reader (Envision). Assays were carried out in triplicates
with concentrations ranging from 3, 10, 30, 100, 300 ,1000 and 3000 nM of peptide. No peptide control
(media only) was used as a negative control, and unlabeled FGF21 and FGF1 as positive control.
competing with biotinylated natural FGF21 ligand.

For assay [8], the target named is T2, FGF-R3C ECD. Nature of the assay: biochemical. Put shortly:
as §1

The target in assay [9] is T3, FGF-R1C ECD. Nature of the assay: biochemical. A digest of the protocol:
as §1

One may read the Kd as the concentration at which binding is half-saturated. What is called IC50 is the concentration that inhibits the measured activity by half.

Read-outs that look alike come from different tables or passages of the source.

For the compound `CC[C@H](C)[C@@H]1NC(=O)[C@H](Cc2ccccc2)NC(=O)[C@@H]2CCCN2C(=O)[C@H](C(C)C)NC(=O)[C@H](Cc2ccccc2)NC(=O)[C@H](CO)NC(=O)[C@H](CC(=O)O)NC(=O)[C@H](Cc2ccccc2)NC(=O)[C@H](CC(C)C)NC(=O)[C@@H](NC(=O)[C@@H](N)CCSC)CSSC[C@@H](C(=O)NCC(=O)N[C@@H](CO)C(=O)NCC(=O)N[C@@H](CO)C(=O)N[C@@H](CC(=O)O)C(=O)N[C@@H](Cc2ccc(O)cc2)C(=O)N[C@@H](CCCCN)C(=O)N[C@@H](CC(=O)O)C(=O)N[C@@H](CC(=O)O)C(=O)N[C@@H](CC(=O)O)C(=O)N[C@@H](CC(=O)O)C(=O)N[C@@H](CCCCN)C(N)=O)NC(=O)[C@H](Cc2ccccc2)NC1=O` [3C.3], the Kd at FGF-R4 ECD [1] is over 1 µM; on FGF-R4 ECD [2], over 10 µM; on FGF-R3C ECD [3] (read-out: KD(3C)), 0.029 µM; at FGF-R1C ECD [4] (read-out: KD (1C)), over 10 µM; at FGF-R3C ECD [8] (read-out: R3C KD, purified NNK library peptides, multi-concentration BLI), 0.021 µM; on FGF-R1C ECD [9] (read-out: R1C KD, purified NNK library peptides, multi-concentration BLI) it was over 1 µM. Also, the IC50 was over 1 µM in assay [5] (read-out: R4 competitive IC50, purified peptides, Alphascreen vs biotinylated FGF21); 0.095 µM in assay [6] (read-out: R3C competitive IC50, purified peptides, Alphascreen vs biotinylated FGF21); over 1 µM in [7] (read-out: R1C competitive IC50, purified peptides, Alphascreen vs biotinylated FGF21).

For `CC[C@H](C)[C@@H]1NC(=O)[C@@H](NC(=O)[C@H](CCSC)NC(C)=O)CSSC[C@@H](C(=O)NCC(=O)N[C@@H](CO)C(=O)NCC(=O)N[C@@H](CO)C(=O)N[C@@H](CC(=O)O)C(=O)N[C@@H](Cc2ccc(O)cc2)C(=O)N[C@@H](CCCCN)C(=O)N[C@@H](CC(=O)O)C(=O)N[C@@H](CC(=O)O)C(=O)N[C@@H](CC(=O)O)C(=O)N[C@@H](CC(=O)O)C(=O)N[C@@H](CCCCN)C(N)=O)NC(=O)[C@H](Cc2ccccc2)NC(=O)[C@H]([C@@H](C)CC)NC(=O)[C@H](Cc2ccccc2)NC(=O)[C@@H]2CCCN2C(=O)[C@H](CC(C)C)NC(=O)[C@H](Cc2ccccc2)NC(=O)[C@H](CC(C)C)NC(=O)[C@H](CC(=O)O)NC(=O)[C@H](Cc2ccccc2)NC1=O` [3C.1], the Kd was over 1 µM on FGF-R4 ECD [1]; over 10 µM on FGF-R4 ECD [2]; 0.064 µM on FGF-R3C ECD [3]; over 10 µM on FGF-R1C ECD [4]; 0.095 µM at FGF-R3C ECD [8]; over 1 µM on FGF-R1C ECD [9]. For the same compound, the IC50 in assay [5] was over 1 µM; in assay [6], 0.204 µM; in assay [7] it was over 1 µM.

For the compound `CSCC[C@H](NC(C)=O)C(=O)N[C@H]1CSSC[C@@H](C(=O)NCC(=O)N[C@@H](CO)C(=O)NCC(=O)N[C@@H](CO)C(=O)N[C@@H](CC(=O)O)C(=O)N[C@@H](Cc2ccc(O)cc2)C(=O)N[C@@H](CCCCN)C(=O)N[C@@H](CC(=O)O)C(=O)N[C@@H](CC(=O)O)C(=O)N[C@@H](CC(=O)O)C(=O)N[C@@H](CC(=O)O)C(=O)N[C@@H](CCCCN)C(N)=O)NC(=O)[C@H](CO)NC(=O)[C@H](Cc2c[nH]cn2)NC(=O)[C@H](Cc2c[nH]c3ccccc23)NC(=O)[C@H](Cc2c[nH]cn2)NC(=O)[C@H](CCCNC(=N)N)NC(=O)[C@H]([C@@H](C)O)NC(=O)[C@H](Cc2ccc(O)cc2)NC(=O)[C@H](CC(C)C)NC(=O)[C@H](CC(N)=O)NC(=O)[C@H](Cc2c[nH]c3ccccc23)NC(=O)[C@H](CCC(N)=O)NC(=O)[C@H](CCC(N)=O)NC1=O` [3C.4], the Kd at FGF-R4 ECD [1] is over 1 µM; on FGF-R4 ECD [2] it was over 10 µM; on FGF-R3C ECD [3] it was over 10 µM; at FGF-R1C ECD [4], over 10 µM; at FGF-R3C ECD [8], over 1 µM; on FGF-R1C ECD [9] it was over 1 µM. The IC50 in assay [5] was over 1 µM; in assay [6], 0.071 µM; in assay [7], over 1 µM. Besides, the “R3C competitive IC50 (nM)” value in [6] (purified peptides, Alphascreen vs biotinylated FGF21) is reported as “efficiently competes with FGF21”. Also, the “R3C KD (nM)” value on FGF-R3C ECD [8] (purified NNK library peptides, multi-concentration BLI) is listed as “could not detect any binding”.

For the origin of these results see PMC10763615, “Identification and engineering of potent cyclic peptides with selective or promiscuous binding through biochemical profiling and bioinformatic data analysis” (RSC Chemical Biology, 2023).
